Experimental findings from PMC6844378, “Structure activity relationship studies on Amb639752: toward the identification of a common pharmacophoric structure for DGKα inhibitors” (Journal of Enzyme Inhibition and Medicinal Chemistry, 2019) are described below.

Molecules are shown by their SMILES.

One data set deals with DGKα (Homo sapiens, UniProt P23743). The experiment in a line: DGK assay on OST-DGKα enriched MDCK homogenates. The data set is classed as biochemical. More on the design: expressed in transfected cells; host or cells: MDCK cells (vector-infected, doxycycline-induced), crude homogenate. The note with it: for remaining activity at 100 µM: percentage of residual DGKα activity compared to DMSO control, OST-DGKα overexpressing cell lysates, saturating DAG and ATP, read-out: Residue activity at 100 µM; for IC50: residual OST-DGKα activity at 0.1, 1.0, 10.0 and 100.0 µM. The method, then: Madin-Darby canine kidney (MDCK) cells stably expressing One Strep Tag DGKα (OST-DGKα) were prepared by infecting MDCK cells with a vector expressing an inducible OST tagged DGKα constructs. MDCK cells infected with empty vector were used as controls. MDCK cells were cultured in MEM (minimal essential medium) with 5% FBS (foetal bovine serum) and 1% antibiotic–antimycotic solution. Routinely, cells were splitted every 3–4 days with trypsin–EDTA 0.25% in standard 100 mm dishes.
Large cultures of MDCK cells for enzyme preparation were done by plating 5 × 10^6 cells in 245 mm^2 dishes. Once they reached nearly 70% confluence, cells were treated with doxycycline (1 µg/mL, two days). […] Cells were collected with a rubber scraper, homogenised by passing them through a 29 G-needle syringe 20 times and stored in aliquots at –80 °C. Presence of OST-DGKα was confirmed by western blotting and enzyme assay, transduced DGKα has an activity >100 folds the endogenous DGK.
Essentionally, the same procedure was followed as reported previously in Velnati et al.[9] In brief, DGK activity was assayed by measuring initial velocities (5 min at 27 °C) in presence of saturating substrate concentrations. Reaction conditions: 0.9 µg/µL 1,2-dioleoyl-sn-glycerol, 5 mM ATP, 0.01 µCi/µL [γ^32P]-ATP, 1 mM sodium orthovanadate, 10 mM MgCl2, 1.2 mM EGTA in 7.5 mM Hepes pH 8[12]. Reaction mixture is assembled mixing enzyme (24.5 µL of homogenate), 100× inhibitor or DMSO (0.5 µL), 5× ATP solution (10 µL of 25 mM ATP, 0.05 µCi/µL [γ^32P]-ATP (Perkin-Elmer, Milan, Italy), 5 mM sodium orthovanadate, 50 mM MgCl2), and 3.3× DAG solution (15 µL of 3 µg/µL 1,2-dioleoyl-sn-glycerol resuspended by sonication in 4 mM EGTA in 25 mM Hepes pH 8). The reaction was stopped after 5 min by adding 200 µL of freshly prepared 1 M HCl and lipid was extracted by adding 200 µL of CH3OH:CHCl3 1:1 solution and vortexing for 1 min. The two phases were separated by centrifugation (12,000 RCF for 2 min). Twenty-five microlitres of the lower organic phase was spotted in small drops on silica TLC plates. TLC was run 10 cm and dried before radioactive signals were detected by GS-250 molecular imager and was quantified by quantity one (Bio-Rad, Hercules, CA) software assuring the absence of saturated spots.
Percentage residual activity was calculated as follows: (OST-DGKα homogenate with inhibitor – vector homogenate)/(OST-DGKα homogenate with DMSO – vector homogenate)×100.
Data for the screen on OST-DGKα homogenates are the mean of duplicates. The compounds showing inhibitory activity in this assay were tested >4 times and the mean ± SEM is reported.
To calculate IC50 values of active inhibitors, the inhibitor activity was measured at least three times at 0.1, 1.0, 10.0, and 100.0 µM concentration. Data were analysed using [inhibitor] vs. normalised response parameters with least square [ordinary] curve fitting method in GraphPad PRISM 8.0 software (GraphPad Software, La Jolla, CA) mentioning 95% confidence interval and IC50 values always greater than 0.0. […] In all the experiments, the data were normalised with the controls.
Each inhibitor was tested in duplicate at least once, and DGKα activity was expressed as percentage of residual DGKα activity compared to DMSO control in the same assay. Assay uses OST-DGKα overexpressing cell lysates in presence of saturating exogenous DAG and ATP. We considered R59022 (commercially available) and the lead compound Amb63975230 as our reference molecules.
To measure the inhibitor potency, we determined the IC50 values for the compounds that resulted active when tested at 100 µM by measuring the residual OST-DGKα activity over a dose range of inhibitor concentrations (0.1 µM, 1.0 µM, 10.0 µM, and 100.0 µM).

In general, melting point refers to the temperature of the solid-liquid transition. A word on the IC50: it is the concentration that gives 50% inhibition.

DGKα, sequence (P23743 whole entry): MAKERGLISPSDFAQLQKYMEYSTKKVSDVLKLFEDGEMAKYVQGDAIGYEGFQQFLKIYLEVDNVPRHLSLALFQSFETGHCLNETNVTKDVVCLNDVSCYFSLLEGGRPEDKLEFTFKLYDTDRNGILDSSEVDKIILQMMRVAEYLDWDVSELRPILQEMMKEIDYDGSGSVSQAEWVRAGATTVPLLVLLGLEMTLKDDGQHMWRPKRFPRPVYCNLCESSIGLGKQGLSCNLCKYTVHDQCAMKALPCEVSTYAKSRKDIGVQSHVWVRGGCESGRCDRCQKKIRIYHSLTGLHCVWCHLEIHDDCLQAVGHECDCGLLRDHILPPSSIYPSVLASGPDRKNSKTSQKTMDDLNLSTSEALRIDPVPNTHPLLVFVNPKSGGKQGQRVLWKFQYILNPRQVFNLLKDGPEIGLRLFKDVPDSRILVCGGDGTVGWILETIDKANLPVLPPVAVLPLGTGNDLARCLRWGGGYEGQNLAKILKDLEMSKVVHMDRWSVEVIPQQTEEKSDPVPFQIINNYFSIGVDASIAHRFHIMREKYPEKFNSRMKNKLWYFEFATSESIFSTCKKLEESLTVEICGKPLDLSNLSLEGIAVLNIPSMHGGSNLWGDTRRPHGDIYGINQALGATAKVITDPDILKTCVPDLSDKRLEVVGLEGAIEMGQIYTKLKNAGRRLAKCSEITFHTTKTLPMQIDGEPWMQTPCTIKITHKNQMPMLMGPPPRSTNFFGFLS

`Cc1ccc2c(C(=O)CN3CCN(C(=O)c4cccnc4)CC3)c(C)[nH]c2c1` [Compound 15, 1-(2,6-Dimethyl-1H-indol-3-yl)-2-(4-nicotinoylpiperazin-1-yl)ethan-1-one] displayed a melting point of 216.2 to 216.8 °C. For the same compound, the remaining activity at 100 µM at DGKα amounted to 89%.
Take `Cn1c(-c2ccccc2)c(C(=O)CN2CCN(C(=O)c3ccco3)CC2)c2ccccc21` [Amb18718]: the remaining activity at 100 µM on DGKα amounted to 135%.
Take `Cc1[nH]c2c(C)ccc(C)c2c1C(=O)CN1CCN(C(=O)c2ccco2)CC1` [Amb22018852]: the remaining activity at 100 µM on DGKα was found to be 160%.
Turning to `COc1ccc2[nH]cc(C(=O)CN3CCN(C(=O)c4ccco4)CC3)c2c1` [Amb629700], the remaining activity at 100 µM at DGKα is 101%.
In the case of `Cc1ccc2c(C(=O)CN3CCN(C(=O)c4ccccc4C)CC3)c(C)[nH]c2c1` [Compound 16, 1-(2,6-Dimethyl-1H-indol-3-yl)-2-(4-(2-methylbenzoyl)piperazin-1-yl)ethan-1-one], the melting point was 200.5 to 201.6 °C. For the same compound, at DGKα, the remaining activity at 100 µM came to 27% and the IC50 was determined as 32.8 µM.
As for `COc1ccc2[nH]c(C)c(C(=O)CN3CCN(C(=O)c4ccco4)CC3)c2c1` [Amb687392], on DGKα, the remaining activity at 100 µM came to 115%.
Still for that read-out and setting: as for `O=C(CN1CCN(C(=O)c2ccco2)CC1)c1c(-c2ccccc2)[nH]c2ccccc12` [Amb98433], the figure is 81%.
The compound `Cc1ccc2c(C(=O)CN3CCN(C(=O)c4ccc(F)c(F)c4)CC3)c(C)[nH]c2c1` [Compound 18, 2-(4-(3,4-Difluorobenzoyl)piperazin-1-yl)-1-(2,6-dimethyl-1H-indol-3-yl)ethan-1-one] had a melting point of 233.8 to 235 °C. The remaining activity at 100 µM at DGKα amounted to 47%.
In turn, `COc1ccc(C(=O)N2CCN(CC(=O)c3c(C)[nH]c4cc(C)ccc34)CC2)cc1` [Compound 12, 1-(2,6-Dimethyl-1H-indol-3-yl)-2-(4-(4-methoxybenzoyl)piperazin-1-yl)ethan-1-one] came in with a melting point of 219.9 to 220.8 °C. In addition, at DGKα, the remaining activity at 100 µM worked out at 6% and the IC50 was found to be 3.6 µM.
`Cc1ccc2[nH]cc(C(=O)CN3CCN(C(=O)c4ccco4)CC3)c2c1` [Amb758592]: on DGKα, the remaining activity at 100 µM was 150%.
`Cc1ccc2c(C(=O)C(C)N3CCN(C(=O)c4ccco4)CC3)c(C)[nH]c2c1` (centres unmarked) [Amb758897]: the remaining activity at 100 µM on DGKα amounted to 67%.
On to `O=C(CN1CCN(C(=O)c2ccco2)CC1)c1c[nH]c2ccccc12` [Compound 2], for which, at DGKα, the remaining activity at 100 µM came to 135%.
On to `O=c1c2ccccc2[nH]c(=S)n1CCC1CCC(=C(c2ccc(F)cc2)c2ccc(F)cc2)CC1` (centres unmarked) [Compound 1], for which the “inhibitory activity on the enzyme (DGKα)” value against DGKα is given as “totally devoid of inhibitory activity”.
Take `Cc1[nH]c2ccccc2c1C(=O)C(C)N1CCN(C(=O)c2ccccc2)CC1` (centres unmarked) [Amb37496]: the remaining activity at 100 µM on DGKα was found to be 114%.
Compound `COc1cccc(C(=O)N2CCN(CC(=O)c3c(C)[nH]c4cc(C)ccc34)CC2)c1` [Compound 17, 1-(2,6-Dimethyl-1H-indol-3-yl)-2-(4-(3-methoxybenzoyl)piperazin-1-yl)ethan-1-one] came in with a melting point of 209.8 to 210.4 °C. Besides, the remaining activity at 100 µM at DGKα amounted to 41%.
Regarding `COc1ccc2c(C(=O)CN3CCN(C(=O)c4ccco4)CC3)c(C)n(C)c2c1` [Amb726054], the remaining activity at 100 µM on DGKα stood at 126%.
For the compound `O=C(c1c[nH]c2ccccc12)C(c1ccccc1)N1CCN(C(=O)c2ccco2)CC1` (centres unmarked) [Amb94966], the remaining activity at 100 µM at DGKα stood at 196%.
Turning to `Cc1ccc2c(C(=O)CN3CCN(C(=O)c4cccc(Cl)c4)CC3)c(C)[nH]c2c1` [Compound 19, 2-(4-(3-Chlorobenzoyl)piperazin-1-yl)-1-(2,6-dimethyl-1H-indol-3-yl)ethan-1-one], the melting point fell in the range of 222.3 to 223.5 °C. For the same compound, on DGKα, the remaining activity at 100 µM was 26% and 49.7 µM corresponded to half-maximal inhibition (IC50).
Consider `CCCCCCC(=O)N1CCN(CC(=O)c2c(C)[nH]c3cc(C)ccc23)CC1` [Compound 22, 1-(4-(2-(2,6-Dimethyl-1H-indol-3-yl)-2-oxoethyl)piperazin-1-yl)heptan-1-one], for which, at DGKα, the remaining activity at 100 µM is 48%.
Consider `Cc1c(C(=O)CN2CCN(C(=O)c3ccco3)CC2)c2ccccc2n1C` [Amb731111], for which the remaining activity at 100 µM on DGKα amounted to 130%.
Take `Cc1ccc2c(C(=O)CN3CCN(C(=O)C4CCCC4)CC3)c(C)[nH]c2c1` [Compound 21, 2-(4-(Cyclopentanecarbonyl)piperazin-1-yl)-1-(2,6-dimethyl-1H-indol-3-yl)ethan-1-one]: at DGKα, the remaining activity at 100 µM came to 39%.
With `CC(C(=O)c1c[nH]c2ccccc12)N1CCN(C(=O)c2ccco2)CC1` (centres unmarked) [Amb626577], at DGKα, the remaining activity at 100 µM was determined as 127%.
With `Cc1ccc2c(C(=O)CN3CCN(C(=O)c4ccccc4)CC3)c(C)[nH]c2c1` [Compound 8, 2-(4-Benzoylpiperazin-1-yl)-1-(2,6-dimethyl-1H-indol-3-yl)ethan-1-one], the melting point lay in the range of 213.8 to 214.3 °C. In addition, on DGKα, the remaining activity at 100 µM turned out to be 5% and inhibition was half-maximal at 3.2 µM (IC50).
`Cc1ccc2c(C(=O)CN3CCN(C(=O)c4ccc(C#N)cc4)CC3)c(C)[nH]c2c1` [Compound 13, 4-(4-(2-(2,6-Dimethyl-1H-indol-3-yl)-2-oxoethyl)piperazine-1-carbonyl)benzonitrile] displayed a melting point of 243.9 to 244.8 °C. Also, at DGKα, the remaining activity at 100 µM stood at 14% and it took 6.9 µM to reach half-maximal inhibition (IC50).
`Cc1[nH]c2ccccc2c1C(=O)C(c1ccccc1)N1CCN(C(=O)c2ccco2)CC1` (centres unmarked) [Amb1926062]: the remaining activity at 100 µM on DGKα amounted to 88%.
